The source made the active and inactive calls. How the calls were made is not given here. Where only a bound is given, the exact number is not on record here.

In PubChem BioAssay AID1053138 (Broad Institute, 2014) one finds fold change and AC50 data, which are given here for three compounds.

A short description of test [1]: Trib1 mRNA induction in HepG2 cells, dose response, cell-based, qPCR (AID 1053138). The settings on record: HepG2 Trib1 mRNA qPCR, 24 h; measured here: Trib1 mRNA max fold induction; stronger effect = higher value. (In general: In qPCR the cycle at which signal appears reflects the starting amount.)
The test system of test [2] is HepG2 Trib1 mRNA qPCR, 24 h. Described as above.

What is called AC50 is the concentration giving half of the maximal activity seen. Compound `CN1C(=O)c2cc(NC(=O)c3ccc(C(F)(F)F)cc3)ccc2OC[C@@H]2O[C@H](CC(=O)NC3Cc4ccccc4C3)CC[C@H]21` showed a fold change in test [1] of 1.3. In test [2], the AC50 is > 25000 nM (inactive).

Take `CN1C(=O)c2cc(NC(=O)c3ccc(C(F)(F)F)cc3)ccc2OC[C@@H]2O[C@@H](CC(=O)NC3Cc4ccccc4C3)CC[C@@H]21`: the fold change in test [1] was determined as 2.7. In addition, the concentration at half-maximal activity (AC50) in test [2] was 1700 nM.

The compound `CN1C(=O)c2cc(NC(=O)c3ccc(C(F)(F)F)cc3)ccc2OC[C@@H]2O[C@H](CC(=O)NC3Cc4ccccc4C3)CC[C@@H]21` gave a fold change in test [1] of 3.7. Further, in test [2], the AC50 was 310 nM.
